These results are taken from ChEMBL document CHEMBL1159146, “Structure-activity studies of N-cyano-3-pyridinecarboxamidines and their amide and thioamide congeners” (1994).

Assay type in all cases: functional
Experiment [1] is filed under the species Cavia porcellus. Kind of experiment: Compound was tested for chronotropic activity in right atria of guinea pig.
For another experiment, the species on record is Rattus norvegicus. Kind of experiment: Compound was tested for […] vasorelaxing activity in aorta of rat.
For experiment [2], the species on record is Cavia porcellus. Kind of experiment: Compound was tested for negative inotropic activity in left atria of guinea pig.

Each structure is given as a SMILES string. Some results are limits rather than exact numbers.

In the case of `O=C(NCCc1ccccc1)c1cccnc1`, the pD2 was less than 3.5 in the experiment filed under Cavia porcellus [1], 4.09 in the experiment listed under Rattus norvegicus and less than 3.5 in the experiment filed under Cavia porcellus [2].

As for `N#CN/C(=N\CCO[N+](=O)[O-])c1cccnc1`, the pD2 is reported as 4.42 in the experiment filed under Cavia porcellus [1], 6.95 in the experiment filed under Rattus norvegicus and 4.84 in the experiment listed under Cavia porcellus [2].

In the case of `S=C(NCCc1ccccc1)c1cccnc1`, the figures for the pD2 in the experiment listed under Cavia porcellus [1], in the experiment filed under Rattus norvegicus and in the experiment filed under Cavia porcellus [2] were 4.1, 4.95 and 4.39, respectively.

As for `O=C(NCCc1ccccc1Cl)c1cccnc1`, the pD2 is given as less than 3.5 in the experiment filed under Cavia porcellus [1], 4.83 in the experiment filed under Rattus norvegicus and 3.7 in the experiment filed under Cavia porcellus [2].

Consider `O=C(NCCO[N+](=O)[O-])c1cccnc1` [NICORANDIL], for which the pD2 in the experiment listed under Cavia porcellus [1] was less than 3.5; in the experiment listed under Rattus norvegicus, 5.62; in the experiment listed under Cavia porcellus [2], less than 3.5.

As to `S=C(NCCc1ccccc1Cl)c1cccnc1`, the figures for the pD2 in the experiment filed under Cavia porcellus [1], in the experiment filed under Rattus norvegicus and in the experiment listed under Cavia porcellus [2] were 4.54, 5.64 and less than 4.5, respectively.

Regarding `N#CN/C(=N\CCc1ccccc1)c1cccnc1`, the values for the pD2 in the experiment listed under Cavia porcellus [1], in the experiment filed under Rattus norvegicus and in the experiment listed under Cavia porcellus [2] were 3.85, 6.4 and 4.6, respectively.

On to `N#CN/C(=N\CCc1ccccc1Cl)c1cccnc1`, for which the pD2 is on record as 5.32 in the experiment listed under Cavia porcellus [1], 7.57 in the experiment filed under Rattus norvegicus and 5.51 in the experiment filed under Cavia porcellus [2].
